Experimental data: PubChem BioAssay AID1985 (Southern Research Specialized Biocontainment Screening …, 2009)

Test system: S. Typhi PhoP-promoter GFP reporter, fluorescence, 4 h
Test: PhoP regulon inhibitor project modified counter assay, GFP fluorescence readout, dose response (AID 1985)

SMILES | IC50
O=Cc1ccc(O)cc1O | 109 µM
Nc1ncncc1-c1ccc(Cl)cc1 | 131 µM
COc1cc(CNCCc2c[nH]c3ccccc23)ccc1OCc1ccc(F)cc1 | 82.7 µM
O=C(O)c1cccc(N2C(=O)CSC2=S)c1 | 62.1 µM
CCSc1ccc2c(c1)N(CCCN1CCN(C)CC1)c1ccccc1S2 | 131 µM
COc1ccc(/C=N/Nc2cc(C)nc3ccc(Br)cc23)cc1 | 46.2 µM
CCOC(=O)N/N=C\c1ccc([N+](=O)[O-])o1 | 23.7 µM
CCCCCCCCCCOC(=O)Cn1c(COc2ccccc2C)[n+](C)c2ccccc21 | 21.3 µM
COc1ccc2c(C(=O)CCl)c[nH]c2c1 | 36.3 µM
COC(=O)C1=C(C)N(Cc2ccccc2)C(=NCc2cccc(C(F)(F)F)c2)N[C@H]1c1cccc(F)c1 | 86.1 µM
Cc1ccc(-c2cc(-c3ccc(C)cc3)[n+](-c3ccccc3)c(-c3ccc(C)cc3)c2)cc1 | 34.5 µM
CCOc1ccc(-c2cc(C)[n+](CCN(CC)CC)c(-c3ccc(OCC)cc3)c2)cc1 | 105 µM
CCCCOc1ccc(OCCNC(=O)c2ccco2)cc1 | 65.4 µM
O=C(N[C@H](CO)[C@H](O)c1ccc([N+](=O)[O-])cc1)C(Cl)Cl | 2.71 µM
O=[N+]([O-])c1cc(Cl)cc(/C=N/NC(=S)Nc2ccc(S(=O)(=O)N3CCOCC3)cc2)c1O | 46.3 µM
CCn1cc(C(=O)NCCCN(C)C)c(=O)c2cc(F)c(N3CCN(C)CC3)cc21 | 35.5 µM
Nc1nonc1C(=O)NCCN=Cc1cc(Cc2ccccc2)cc(Br)c1O | 83.3 µM
CC(C)Cc1c(O)nc(SCC(=O)Nc2ccc3c(c2)CCC3)[nH]c1=O | 95.4 µM
Cc1cc(C)n2nc(S(=O)(=O)Nc3c(Cl)cccc3Cl)nc2n1 | 11.1 µM
Cc1cc(O)c2c(c1)C(=O)C13C(=C2O)C(=O)[C@H]2[C@@H](O)[C@@H]1[C@H]1[C@H](O)[C@@H]3C(=O)C3=C(O)c4c(O)cc(C)cc4C(=O)C312 (stereo not given in full) | 19.1 µM

SMILES | IC50
C#CCOCCOCCOCCNc1nc(N2CCN(C(=O)CCCCCCCCCCNC(=O)Cn3cc(CCCCCN)nn3)CC2)nc(N2CCN(C(=O)CCCCCCCCCCNC(=O)[C@H]([C@@H](C)CC)n3cc(CCCCCN)nn3)CC2)n1 | 71.3 µM
Cc1ccsc1/C=N/Nc1ccc(C(=O)O)cc1 | 94.2 µM
C#CCOCCOCCOCCNc1nc(N2CCN(C(=O)[C@H](Cc3cc4ccccc4[nH]3)n3cc([C@@H](N)CC(C)C)nn3)CC2)nc(N2CCN(C(=O)[C@H](Cc3cc4ccccc4[nH]3)n3cc([C@@H](N)CC(C)C)nn3)CC2)n1 | 67.5 µM
Cc1nc2ccccn2c1C(=O)N/N=C/c1ccc([N+](=O)[O-])o1 | 33.5 µM
Cc1cc(C)c2nc(C)cc(N/N=C/c3ccc(O)cc3)c2c1 | 49.7 µM
O=C1C=CC(=O)N1CCCCCCN1C(=O)C=CC1=O | 112 µM
O=C(Nc1c2ccccc2nc2ccccc12)C(Cl)(Cl)Cl | 43.8 µM
NC(=O)c1ccc(N=C2C(=O)Nc3ccc([N+](=O)[O-])cc32)cc1 | 31.8 µM
Cc1cc(C)n(-c2nc(NCCN(C)C)c3c4c(sc3n2)CCCC4)n1 | 99.4 µM
C#CCOCCOCCOCCNc1nc(N2CCN(C(=O)CCCCCCCCCCNC(=O)[C@H](CCCCN)n3cc(CCO)nn3)CC2)nc(N2CCN(C(=O)CCCCCCCCCCNC(=O)[C@H](CCCCN)n3cc(C[C@@H](C)CC)nn3)CC2)n1 | 38 µM
CN1CCN(C(c2ccc(C(F)(F)F)cc2)c2ccc3cccnc3c2O)CC1 (stereo not given) | 34.9 µM
NC(N)=Nc1nc(-c2ccccc2)c2cc(Cl)ccc2n1 | 97.8 µM
O=C(N/N=C/c1c[nH]c2ccccc12)c1cc2ccccc2o1 | 33.5 µM
CCc1nccc2c1[nH]c1ccccc12 | 123 µM
Cc1ccc(NC(=O)c2ccc([N+](=O)[O-])o2)c(C)c1 | 38.9 µM
CC(=O)NC(=S)NNC(=O)c1ccc(Br)cc1 | 33.8 µM
CCCCCCCCCCOC(=O)Cn1c(COc2cccc(OC)c2)[n+](C)c2ccccc21 | 18.1 µM
COc1ccc(CNCCC(c2ccccc2)c2ccc3c(c2)OCO3)cc1 (stereo not given) | 149 µM
CN1CCN(C2=Cc3cc(Cl)ccc3Sc3cc(F)ccc32)CC1 | 137 µM
O=C(N/N=C/c1ccccc1O)c1ccncc1 | 24.7 µM
